The data set can be described thus: Hygroscopicity: water content of crystals after storage in dessicator. Format: physicochemical. As to conditions: after 24 hours inside a dessicator at 60° C. and humidity of 100%. On the procedure:
For example, Aripiprazole Anhydride Crystals B of the present invention maintain a water content of 0.4% or less after 24 hours inside a dessicator set at a temperature of 60° C. and a humidity of 100%.
Well-known methods of measuring water content can be used as long as they are methods commonly used for measuring the water content of crystals. For example, a method such as the Karl Fischer method can be used.

For `O=C1CCc2ccc(OCCCCN3CCN(c4cccc(Cl)c4Cl)CC3)cc2N1` [Aripiprazole Anhydride Crystals B, aripiprazole], the water content is at most 0.4%.

These data come from patent US9358207B2, “Flashmelt oral dosage formulation” (OTSUKA PHARMACEUTICAL CO., LTD., priority 2000, dated 2016).
